Where two headings read alike, the source gives them in different places. Marks after values point to notes of the source that are not given here. Blank lines part the entries; values can stand above or below the compound they belong to.
Legend:
Puccinia recondita = test: In vivo preventive test on Puccinia recondita (brown rust on wheat); conditions: for protection: in words, at a dose of 500 and 100 ppm of active ingredient, analogues 11 and 13 in very similar conditions
Procedure: [table] […] The young plants of wheat are treated by spraying the active ingredient prepared as described above. […] After 24 hours, the plants are contaminated by spraying the leaves with an aqueous suspension of Puccinia recondita spores. The contaminated wheat plants are incubated for 24 hours at 20° C. and at 100% relative humidity and then for 10 days at 20° C. and at 70-80% relative humidity. The test is evaluated 11 days after the inoculation. 0% means an efficacy which corresponds to that of the control plants while an efficacy of 100% means that no disease is observed.

[1] = log P by HPLC on reversed-phase column (C 18), EEC Directive 79/831 Annex V.A8; assay type: physicochemical; conditions: for logP: Table 1, HPLC, 0.1% aqueous formic acid and acetonitrile, 40° C.
Procedure: In table 1, the log P values were determined in accordance with EEC Directive 79/831 Annex V.A8 by HPLC (High Performance Liquid Chromatography) on a reversed-phase column (C 18), using the method described below: Temperature: 40° C.; Mobile phases: 0.1% aqueous formic acid and acetonitrile; linear gradient from 10% acetonitrile to 90% acetonitrile. Calibration was carried out using unbranched alkan-2-ones (comprising 3 to 16 carbon atoms) with known log P values (determination of the log P values by the retention times using linear interpolation between two successive alkanones). lambda-max-values were determined using UV-spectra from 200 nm to 400 nm and the peak values of the chromatographic signals. In table 2, M+H (Apcl+) and log P are defined as for table 1.

Sphaerotheca fuliginea = test: In vivo preventive test on Sphaerotheca fuliginea (powdery mildew on cucurbits); conditions: for Efficacy: Table F1; for protection: in words, at a dose of 500 and 100 ppm of active ingredient, analogue 13 in very similar conditions
Procedure: [table] […] The young plants of gherkin are treated by spraying the active ingredient prepared as described above. […] After 24 hours, the plants are contaminated by spraying the leaves with an aqueous suspension of Sphaerotheca fuliginea spores. The contaminated gherkin plants are incubated for 72 hours at 18° C. and at 100% relative humidity and then for 12 days at 20° C. and at 70-80% relative humidity. The test is evaluated 15 days after the inoculation. 0% means an efficacy which corresponds to that of the control plants while an efficacy of 100% means that no disease is observed.

Uromyces appendiculatus = test: In vivo preventive test on Uromyces appendiculatus (bean rust); conditions: for protection: in words, at a dose of 500 and 100 ppm of active ingredient
Procedure: [table] The active ingredients are made soluble and homogenized in a mixture of Dimethyl sulfoxide/Acetone//Tween® 80 and then diluted in water to the desired concentration. The young plants of bean are treated by spraying the active ingredient prepared as described above. Control plants are treated only with an aqueous solution of Acetone/Dimethyl sulfoxide/Tween® 80. After 24 hours, the plants are contaminated by spraying the leaves with an aqueous suspension of Uromyces appendiculatus spores. The contaminated bean plants are incubated for 24 hours at 20° C. and at 100% relative humidity and then for 10 days at 20° C. and at 70-80% relative humidity. The test is evaluated 11 days after the inoculation. 0% means an efficacy which corresponds to that of the control plants while an efficacy of 100% means that no disease is observed.

[2] = second value of a mixture of two diastereoisomers
[3] = single value, or first value of a mixture of two diastereoisomers
[4] = Table C2, dose 100 ppm, formulated in DMF with 2% of alkylarylpolyglycolether
[5] = Table C2, dose 500 ppm, formulated in DMF with 2% of alkylarylpolyglycolether

logP [1, 2]: 3.61 | logP [1, 3]: 3.48
SMILES: Cn1nc(C(F)F)c(C(=O)N2CCCC2C2CCCc3ccccc32)c1F (mixture of isomers) [I.26]
Efficacy (Puccinia recondita; Table C2, dose 100 ppm, wheat): 88% | Efficacy (Puccinia recondita; Table C2, dose 500 ppm, wheat): 98% | protection (Puccinia recondita; wheat): excellent (at least 90%) to high (at least 80%) protection | Efficacy (Sphaerotheca fuliginea; dose 100 ppm, gherkin): 100% | Efficacy (Sphaerotheca fuliginea; dose 500 ppm, gherkin): 100% | protection (Sphaerotheca fuliginea; gherkin): total protection | Efficacy (Uromyces appendiculatus; Table G1, dose 100 ppm): 100% | Efficacy (Uromyces appendiculatus; Table G1, dose 500 ppm): 100% | Efficacy (Uromyces appendiculatus; Table G2, dose 100 ppm): 100% | Efficacy (Uromyces appendiculatus; Table G2, dose 500 ppm): 100% | protection (Uromyces appendiculatus): total protection | protection (Uromyces appendiculatus; listed as 1.26): total to average (at least 50%) protection

logP [1, 2]: 3.21 | logP [1, 3]: 2.94
SMILES: Cn1cc(C(=O)N2CCCC2C2CCCc3ccccc32)c(C(F)F)n1 (mixture of isomers) [I.27]
Efficacy (Uromyces appendiculatus; Table G2, dose 100 ppm): 56% | Efficacy (Uromyces appendiculatus; Table G2, dose 500 ppm): 100% | protection (Uromyces appendiculatus): total to average (at least 50%) protection

chromatographic logP ([1]; reversed-phase HPLC column (C 18), separated diastereoisomers, preparation Example 1, read-out: log P): 3.63
SMILES: Cn1nc(C(=O)N2CCCC2C2CCc3cc(F)cc(F)c32)c(C(F)F)n1 (single isomer, unassigned) [I.15, [2-(5,7-difluoro-2,3-dihydro-1H-inden-1-yl)pyrrolidin-1-yl][5-(difluoromethyl)-2-methyl-2H-1,2,3-triazol-4-yl]methanone]

logP [1, 3]: 3.68
SMILES: Cn1cc(C(=O)N2CCCC2C2CCc3cc(F)cc(F)c32)c(C(F)(F)F)c1 (single isomer, unassigned) [I.39]

logP [1, 3]: 3.70
SMILES: Cn1cc(C(=O)N2CCCC2C2CCc3cc(F)cc(F)c32)c(C(F)(F)F)c1 (single isomer, unassigned) [I.40]

logP [1, 3]: 3.48
SMILES: Cn1nc(C(F)F)c(C(=O)N2CCCC2C2CCc3c(F)cccc32)c1Cl (centres unmarked) [I.02]

logP [1, 3]: 3.61
SMILES: Cn1cc(C(=O)N2CCCC2C2CCc3cc(Cl)cc(Cl)c32)c(C(F)F)n1 (centres unmarked) [I.08]

logP [1, 3]: 4.14
SMILES: Cn1nc(C(F)F)c(C(=O)N2CCCC2C2CCc3cc(Cl)cc(Cl)c32)c1F (centres unmarked) [I.10]

logP [1, 3]: 2.96
SMILES: Cn1cc(C(=O)N2CCCC2C2CCc3cc(F)cc(F)c32)c(C(F)F)n1 (centres unmarked) [I.11]

logP [1, 3]: 3.50
SMILES: Cn1nc(C(F)F)c(C(=O)N2CCCC2C2CCc3cc(F)ccc32)c1Cl (centres unmarked) [I.16]

logP [1, 3]: 4.16
SMILES: Cn1cc(C(=O)N2CCCC2C2CCc3ccc(C(C)(C)C)cc32)c(C(F)F)n1 (centres unmarked) [I.22]

logP [1, 3]: 4.82
SMILES: Cn1nc(C(F)F)c(C(=O)N2CCCC2C2CCc3ccc(C(C)(C)C)cc32)c1Cl (centres unmarked) [I.23]

logP [1, 3]: 3.67
SMILES: Cn1nc(C(F)F)c(C(=O)N2CCCCC2C2CCCc3ccccc32)c1F (centres unmarked) [I.31]
Efficacy (Puccinia recondita; Table C1, dose 100 ppm, wheat): 64% | Efficacy (Puccinia recondita; Table C1, dose 500 ppm, wheat): 93% | protection (Puccinia recondita; wheat): excellent (at least 90%) to average (at least 60%) protection

logP [1, 3]: 3.17
SMILES: Cn1cc(C(=O)N2CCCCC2C2CCCc3ccccc32)c(C(F)F)n1 (centres unmarked) [I.32]

logP [1, 3]: 4.01
SMILES: Cn1nc(C(F)F)c(C(=S)N2CCCC2C2CCc3c(F)cccc32)c1F (centres unmarked) [I.41]

More lines, now with the values behind:

SMILES: Cc1nc(C(F)F)c(C(=O)N2CCCC2C2CCc3cc(F)cc(F)c32)s1 (single isomer, unassigned) [I.37]
logP [1, 3]: 3.52

SMILES: Cc1nc(C(F)F)c(C(=O)N2CCCC2C2CCc3cc(F)cc(F)c32)s1 (single isomer, unassigned) [I.38]
logP [1, 3]: 3.55

SMILES: Cn1nc(C(F)F)c(C(=O)N(CCc2ccccc2)C2CC2)c1F [11 from WO-2011/151369, N-cyclopropyl-3-(difluoromethyl)-5-fluoro-1-methyl-N-(2-phenylethyl)-1H-pyrazole-4-carboxamide]
Efficacy (Puccinia recondita; [4]): 0 ^(a) % | Efficacy (Puccinia recondita; [5]): 10 ^(a) % | protection (Puccinia recondita; wheat): poor (less than 40%) to no protection

SMILES: CC(CN(C(=O)c1c(C(F)F)nn(C)c1F)C1CC1)c1ccccc1 (centres unmarked) [13 from WO-2011/151369, N-cyclopropyl-3-(difluoromethyl)-5-fluoro-1-methyl-N-(2-phenylpropyl)-1H-pyrazole-4-carboxamide, reference compound]
Efficacy (Puccinia recondita; [4]): 10 ^(a) % | Efficacy (Puccinia recondita; [5]): 40 ^(a) % | protection (Puccinia recondita; wheat): poor (less than 40%) to no protection | Efficacy (Sphaerotheca fuliginea; dose 100 ppm, formulated in DMF with 2% of alkylarylpolyglycolether): 3 ^(a) % | Efficacy (Sphaerotheca fuliginea; dose 500 ppm, formulated in DMF with 2% of alkylarylpolyglycolether): 63 ^(a) % | protection (Sphaerotheca fuliginea; gherkin): average (at least 60%) to poor (less than 10%) protection

SMILES: CCC(c1ccccc1)C1CCCN1C(=O)c1c(C(F)F)nn(C)c1F (centres unmarked) [53 from WO2012/052491, [3-(difluoromethyl)-5-fluoro-1-methyl-1H-pyrazol-4-yl][2-(1-phenylpropyl)pyrrolidin-1-yl]methanone, reference compound]
Efficacy (Uromyces appendiculatus; Table G1, dose 100 ppm): 0% | Efficacy (Uromyces appendiculatus; Table G1, dose 500 ppm): 77% | protection (Uromyces appendiculatus): good (at least 70%) to no protection

SMILES: CCC(c1ccccc1)C1CCCCN1C(=O)c1c(C(F)F)nn(C)c1F (centres unmarked) [136 from WO-2012/052489, [3-(difluoromethyl)-5-fluoro-1-methyl-1H-pyrazol-4-yl][2-(1-phenylpropyl)piperidin-1-yl]methanone]
Efficacy (Puccinia recondita; Table C1, dose 100 ppm, wheat): 50% | Efficacy (Puccinia recondita; Table C1, dose 500 ppm, wheat): 65% | protection (Puccinia recondita; wheat): average protection

SMILES: Cc1nn(C)c(F)c1C(=O)N(C1CC1)C(C)C1CCCc2ccccc21 (centres unmarked) [I.2 from WO-2010/086311, N-cyclopropyl-5-fluoro-1,3-dimethyl-N-[1-(1,2,3,4-tetrahydronaphthalen-1-yl)ethyl]-1H-pyrazole-4-carboxamide, reference compound]
Efficacy (Uromyces appendiculatus; Table G2, dose 100 ppm): 0% | Efficacy (Uromyces appendiculatus; Table G2, dose 500 ppm): 88% | protection (Uromyces appendiculatus): high (at least 80%) to no protection

SMILES: c1ccc2c(c1)CCC2C1CCCCN1 (centres unmarked) [IIa.01, 2-(2,3-dihydro-1H-inden-1-yl)piperidine]
chromatographic logP ([1]; logP): 0.52

SMILES: c1ccc2c(c1)CCCC2C1CCCCN1 (centres unmarked) [IIa.02, 2-(1,2,3,4-tetrahydronaphthalen-1-yl)piperidine]
chromatographic logP ([1]; logP): 1.21

SMILES: c1ccc2c(c1)CCCCC2C1CCCCN1 (centres unmarked) [IIa.03, 2-(6,7,8,9-tetrahydro-5H-benzo[7]annulen-5-yl)piperidine]
chromatographic logP ([1]; logP): 1.31

SMILES: c1ccc2c(c1)OCCC2C1CCCCN1 (centres unmarked) [IIa.04, 2-(3,4-dihydro-2H-chromen-4-yl)piperidine]
chromatographic logP ([1]; reversed-phase HPLC column (C 18), Table 2, compounds of formula (IIa), HPLC as for table 1, read-out: logP): 0.82

Source: patent US10626109B2, “N-hetaryl(thio)carbonyl-2-(benzocycloalken-1-yl)cyclamines and their use as fungicides” (BAYER CROPSCIENCE AKTIENGESELLSCHAFT, priority 2013, dated 2020)
